Source: US20200247855A1, “THERAPY AND DIAGNOSTICS” (OXFORD UNIVERSITY INNOVATION LIMITED, priority 2017, published 2020)
No end group written: not given here.

Assays:
[1] = target: T1, CCL8 (Homo sapiens, UniProt P80075); experiment: Fluorescence polarisation (anisotropy) assay; assay type: binding; conditions: fluorescence polarisation displacement assay
T1 construct: SUMO (in-house protein only) (cleaved yes); made in house; host or cells: Escherichia coli RosettaGami 2 (DE3)
T1 sequence (P80075 24-99): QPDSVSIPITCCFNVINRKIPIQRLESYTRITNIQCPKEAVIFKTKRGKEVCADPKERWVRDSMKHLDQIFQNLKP

[2] = target: T2, CCL8 homodimer (Homo sapiens, UniProt P80075); experiment: Native mass spectrometry of CCL8 with peptide; conditions: 1:1 CCL8 monomer:BK1.1
T2 construct: purchased Peprotech (UK)
T2 sequence (P80075 24-99): T1 sequence (P80075 24-99)
Procedure: Mid panel: In-solution dissociation of CCL8 dimer and further binding of CCL8 to one and two BK-1. Confirmation of CCL8/BK-1 complex by HCD gas-phase dissociation of isolated precursor ions: Bottom panel, left: 2217 m/z corresponding to CCL8/BK-1 (1:1) and Bottom panel, […]: 2555 m/z corresponding to CCL8/BK-1 (1:2). Buffers contained up to 0.5% DMSO. All analyses were performed in triplicate.
Samples were analysed using a modified Q-Exactive mass spectrometer (Thermo Fisher Scientific) for high-mass range measurements (Gault, J. et al., Nature methods [2016]). CCL8 was buffered exchanged into 200 mM ammonium acetate solution (pH=6.5). […] In all cases no more than 0.5% DMSO was present in the final mixture, and a control sample of CCL8 homodimer containing 0.5% DMSO was also analysed. Instrumental parameters were set to: capillary voltage of 1.2 KV, source temperature of 50° C. and 60 V of source induced dissociation (SID). Gas phase dissociation was carried out by applying 35 and 55 V of higher-energy collisional dissociation (HCD) to the most intense charge state after isolation (25 m/z window). Spectra was acquired using a mass resolution of 60,000 for both precursor and dissociated product ions. All measurements were done in triplicates.

EDEDYEDFFKPVTAYF-NH2 [BK1.1]
Displacement of FITC-labelled peptide from CCL8 by unlabelled peptide [1]: indicate its binding | Displacement of FITC-labelled peptide from CCL8 by unlabelled peptide ([1]; listed as P672_PEP): able to displace labelled peptide bound to chemokine | Effect on CCL8 homodimerization [2]: disrupt CCL8 homodimerization
